# Measurements from ChEMBL document CHEMBL2406934, “Orally available and efficacious α4β1/α4β7 integrin inhibitors” (Bioorg Med Chem Lett, 2013).
# The source made the active and inactive calls. The rule behind the calls is not given here.
# How the values were obtained:
# [1] = AUC (0 to infinity) in po dosed rat; type: ADME, organism-based; parameters: route oral, time infinity; conditions: plasma
# [2] = Cmax in po dosed rat; type: ADME, organism-based; parameters: route oral; conditions: in vivo
# [3] = biological target: T1, Integrin alpha-4/beta-1 (Homo sapiens, UniProt P05556+P13612); assay: Inhibition of alpha4beta1 integrin-mediated human jurkat cell adhesion to fibronectin in absence of human serum albumin; type: protein-complex assay
# [4] = biological target: T1, Integrin alpha-4/beta-1; assay: Inhibition of alpha4beta1 integrin-mediated human jurkat cell adhesion to fibronectin in presence of human serum albumin; type: protein-complex assay
# [5] = Plasma concentration in HLA-B27 rat at 100 mg/kg, po bid administered for 11 days measured 12 hrs post last dose; type: ADME, organism-based; parameters: dose 100 mg/kg, route oral
# [6] = test system: Cavia porcellus; assay: Reduction on allergenic encephalomyelitis guinea pig EAE model at 300 mg/kg, po bid; type: functional, organism-based; parameters: dose 300 mg/kg
# [7] = test system: Liver microsomes; assay: Drug metabolism in human liver microsomes assessed as (S)-2-(2-(ethylamino)-5-(N-isopropylmethylsulfonamido)pyrimidin-4-ylamino)-3-(4-(pyrrolidine-1-carbonyloxy)phenyl)propanoic acid synthesis; type: ADME, Microsome
# [8] = test system: Liver microsomes; assay: Drug metabolism in rat liver microsomes assessed as (S)-2-(2-(ethylamino)-5-(N-isopropylmethylsulfonamido)pyrimidin-4-ylamino)-3-(4-(pyrrolidine-1-carbonyloxy)phenyl)propanoic acid synthesis; type: ADME, Microsome
# [9] = Plasma concentration in rat at 1000 mg/kg, po administered for 10 days measured 24 hrs post last dose; type: ADME, organism-based; parameters: dose 1000 mg/kg, route oral
# [10] = Plasma concentration in rat at 300 mg/kg, po administered for 10 days measured 24 hrs post last dose; type: ADME, organism-based; parameters: dose 300 mg/kg, route oral
# [11] = Plasma concentration in rat at 100 mg/kg, po administered for 10 days measured 24 hrs post last dose; type: ADME, organism-based; parameters: dose 100 mg/kg, route oral
# [12] = Plasma concentration in rat at 30 mg/kg, po administered for 10 days measured 24 hrs post last dose; type: ADME, organism-based; parameters: dose 30 mg/kg, route oral
# [13] = test system: Rattus norvegicus; assay: Toxicity in rat assessed as weight gain at 1 to 1000 mg/kg, po after 10 days; type: organism-based; parameters: dose 1-1000 mg/kg, route oral; conditions: in vivo, 240 h
# [14] = Plasma concentration in rat at 10 mg/kg, po administered for 10 days measured 24 hrs post last dose; type: ADME, organism-based; parameters: dose 10 mg/kg, route oral
# [15] = Plasma concentration in rat at 1000 mg/kg, po after 24 hrs; type: ADME, organism-based; parameters: dose 1000 mg/kg, route oral
# [16] = Plasma concentration in rat at 100 mg/kg, po after 24 hrs; type: ADME, organism-based; parameters: dose 100 mg/kg, route oral
# [17] = Plasma concentration in rat at 300 mg/kg, po after 24 hrs; type: ADME, organism-based; parameters: dose 300 mg/kg, route oral
# [18] = Plasma concentration in rat at 30 mg/kg, po after 24 hrs; type: ADME, organism-based; parameters: dose 30 mg/kg, route oral
# [19] = Plasma concentration in rat at 10 mg/kg, po after 24 hrs; type: ADME, organism-based; parameters: dose 10 mg/kg, route oral
# [20] = Plasma concentration in rat at 3 mg/kg, po after 24 hrs; type: ADME, organism-based; parameters: dose 3 mg/kg, route oral
# [21] = AUC (0 to infinity) in rat at 1000 mg/kg, po; type: ADME, organism-based; parameters: time infinity, dose 1000 mg/kg, route oral; conditions: plasma
# [22] = AUC (0 to infinity) in rat at 300 mg/kg, po; type: ADME, organism-based; parameters: time infinity, dose 300 mg/kg, route oral; conditions: plasma
# [23] = AUC (0 to infinity) in rat at 30 mg/kg, po; type: ADME, organism-based; parameters: time infinity, dose 30 mg/kg, route oral; conditions: plasma
# [24] = AUC (0 to infinity) in rat at 100 mg/kg, po; type: ADME, organism-based; parameters: time infinity, dose 100 mg/kg, route oral; conditions: plasma
# [25] = AUC (0 to infinity) in rat at 10 mg/kg, po; type: ADME, organism-based; parameters: time infinity, dose 10 mg/kg, route oral; conditions: plasma
# [26] = AUC (0 to infinity) in rat at 3 mg/kg, po; type: ADME, organism-based; parameters: time infinity, dose 3 mg/kg, route oral; conditions: plasma
# [27] = Cmax in rat at 1000 mg/kg, po; type: ADME, organism-based; parameters: dose 1000 mg/kg, route oral; conditions: in vivo
# [28] = AUC (0 to infinity) in rat at 1 mg/kg, po; type: ADME, organism-based; parameters: time infinity, dose 1 mg/kg, route oral; conditions: plasma
# [29] = Cmax in rat at 300 mg/kg, po; type: ADME, organism-based; parameters: dose 300 mg/kg, route oral; conditions: in vivo
# [30] = Cmax in rat at 30 mg/kg, po; type: ADME, organism-based; parameters: dose 30 mg/kg, route oral; conditions: in vivo
# [31] = Cmax in rat at 100 mg/kg, po; type: ADME, organism-based; parameters: dose 100 mg/kg, route oral; conditions: in vivo
# [32] = Cmax in rat at 3 mg/kg, po; type: ADME, organism-based; parameters: dose 3 mg/kg, route oral; conditions: in vivo
# [33] = Cmax in rat at 10 mg/kg, po; type: ADME, organism-based; parameters: dose 10 mg/kg, route oral; conditions: in vivo
# [34] = Volume of distribution at steady state in iv dosed rat; type: ADME, organism-based; conditions: in vivo, read-out: Vdss
# [35] = Oral bioavailability in rat; type: ADME, organism-based; conditions: in vivo
# [36] = Cmax in rat at 1 mg/kg, po; type: ADME, organism-based; parameters: dose 1 mg/kg, route oral; conditions: in vivo
# [37] = Apparent volume of distribution in iv dosed rat; type: ADME, organism-based; conditions: in vivo, read-out: Vz
# [38] = Clearance in iv dosed rat; type: ADME, organism-based; conditions: in vivo
# [39] = Half life in iv dosed rat; type: ADME, organism-based; conditions: in vivo
# [40] = Plasma concentration in rat at 1 mg/kg, po after 24 hrs; type: ADME, organism-based; parameters: dose 1 mg/kg, route oral
# T1 sequence (P05556 whole entry): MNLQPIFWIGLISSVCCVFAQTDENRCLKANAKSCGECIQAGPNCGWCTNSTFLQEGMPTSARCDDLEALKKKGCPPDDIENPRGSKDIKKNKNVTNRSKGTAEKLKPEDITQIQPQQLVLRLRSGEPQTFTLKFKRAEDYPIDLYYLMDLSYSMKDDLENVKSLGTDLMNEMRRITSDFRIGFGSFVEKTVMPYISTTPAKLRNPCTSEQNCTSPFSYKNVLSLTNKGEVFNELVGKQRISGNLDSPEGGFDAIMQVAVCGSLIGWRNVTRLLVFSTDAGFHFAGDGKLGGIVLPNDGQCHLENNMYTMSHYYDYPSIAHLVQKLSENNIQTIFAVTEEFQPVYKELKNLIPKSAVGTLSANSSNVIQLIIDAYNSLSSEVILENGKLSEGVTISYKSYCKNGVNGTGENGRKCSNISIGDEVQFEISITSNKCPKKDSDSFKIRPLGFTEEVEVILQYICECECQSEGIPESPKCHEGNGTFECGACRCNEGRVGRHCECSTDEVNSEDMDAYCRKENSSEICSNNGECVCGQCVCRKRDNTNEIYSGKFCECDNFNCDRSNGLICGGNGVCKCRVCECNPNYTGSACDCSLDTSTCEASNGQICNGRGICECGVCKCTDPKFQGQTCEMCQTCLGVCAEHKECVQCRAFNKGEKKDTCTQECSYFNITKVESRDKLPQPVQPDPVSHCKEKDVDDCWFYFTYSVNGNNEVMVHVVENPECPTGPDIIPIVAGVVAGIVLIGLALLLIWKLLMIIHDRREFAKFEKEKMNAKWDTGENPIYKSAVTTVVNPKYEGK
# T1 sequence (P13612 whole entry): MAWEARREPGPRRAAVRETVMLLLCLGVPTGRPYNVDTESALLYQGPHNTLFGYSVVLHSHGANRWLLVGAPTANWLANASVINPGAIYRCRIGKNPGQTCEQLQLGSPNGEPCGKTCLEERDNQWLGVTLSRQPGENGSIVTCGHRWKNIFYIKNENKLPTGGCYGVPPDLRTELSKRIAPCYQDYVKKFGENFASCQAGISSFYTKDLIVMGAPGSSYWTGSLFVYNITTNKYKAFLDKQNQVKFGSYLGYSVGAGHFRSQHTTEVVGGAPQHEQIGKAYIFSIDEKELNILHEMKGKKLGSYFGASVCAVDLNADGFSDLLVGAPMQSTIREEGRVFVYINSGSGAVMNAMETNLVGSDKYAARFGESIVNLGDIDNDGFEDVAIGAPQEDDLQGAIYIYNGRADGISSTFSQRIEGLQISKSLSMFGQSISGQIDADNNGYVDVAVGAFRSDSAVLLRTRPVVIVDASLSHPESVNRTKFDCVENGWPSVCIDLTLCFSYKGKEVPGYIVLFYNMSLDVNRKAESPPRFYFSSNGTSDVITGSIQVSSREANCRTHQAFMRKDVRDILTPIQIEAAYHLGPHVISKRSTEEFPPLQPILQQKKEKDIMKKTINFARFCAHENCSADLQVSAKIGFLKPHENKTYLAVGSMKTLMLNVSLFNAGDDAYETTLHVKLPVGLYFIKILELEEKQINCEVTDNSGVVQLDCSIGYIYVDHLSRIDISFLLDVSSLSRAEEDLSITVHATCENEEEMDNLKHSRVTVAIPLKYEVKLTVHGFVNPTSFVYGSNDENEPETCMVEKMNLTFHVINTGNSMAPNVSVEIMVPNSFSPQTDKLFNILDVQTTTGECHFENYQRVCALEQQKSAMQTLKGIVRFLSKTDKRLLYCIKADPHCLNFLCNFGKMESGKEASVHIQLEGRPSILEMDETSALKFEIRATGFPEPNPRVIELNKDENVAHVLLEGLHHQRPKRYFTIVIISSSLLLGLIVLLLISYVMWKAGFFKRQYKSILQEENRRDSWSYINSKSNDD
smiles,measurement,setting,value
CCNc1ncc(N(C(C)C)S(C)(=O)=O)c(N[C@@H](Cc2ccc(OC(=O)N3CCCC3)cc2)C(=O)O)n1,AUC(0-inf),[1],6.8 µg·h/mL
same,Cmax,[2],1400 ng/mL
same,IC50,[3],23.3 nM
same,IC50,[4],4820 nM
CCN(CC)c1ncc(N(C(C)C)S(C)(=O)=O)c(N[C@@H](Cc2ccc(OC(=O)N3CCCC3)cc2)C(=O)O)n1,concentration at 12 h,[5],2500 ng/mL
same,Activity,[6],inactive
same,Drug metabolism,[7],Active
same,Drug metabolism,[8],Active
same,concentration at 24 h,[9],100000 ng/mL
same,concentration at 24 h,[10],43100 ng/mL
same,concentration at 24 h,[11],28500 ng/mL
same,concentration at 24 h,[12],13000 ng/mL
same,Activity,[13],Non-toxic
same,concentration at 24 h,[14],3380 ng/mL
same,concentration at 24 h,[15],71400 ng/mL
same,concentration at 24 h,[16],13600 ng/mL
same,concentration at 24 h,[17],46200 ng/mL
same,concentration at 24 h,[18],4250 ng/mL
same,concentration at 24 h,[19],1010 ng/mL
same,concentration at 24 h,[20],358 ng/mL
same,AUC(0-inf),[21],4480 µg·h/mL
same,AUC(0-inf),[22],2980 µg·h/mL
same,AUC(0-inf),[23],275 µg·h/mL
same,AUC(0-inf),[24],1260 µg·h/mL
same,AUC(0-inf),[25],76 µg·h/mL
same,AUC(0-inf),[26],24.2 µg·h/mL
same,Cmax,[27],214000 ng/mL
same,AUC(0-inf),[28],5.9 µg·h/mL
same,Cmax,[29],153000 ng/mL
same,Cmax,[30],17400 ng/mL
same,Cmax,[31],105000 ng/mL
same,Cmax,[32],1100 ng/mL
same,Cmax,[33],3600 ng/mL
same,Vd,[34],0.068 L/kg
same,bioavailability,[35],17%
same,Cmax,[36],230 ng/mL
same,Vd,[37],0.108 L/kg
same,clearance,[38],0.172 mL/min/kg
same,half-life,[39],7.3 h
same,AUC(0-inf),[1],221 µg·h/mL
same,Cmax,[2],16500 ng/mL
same,concentration at 24 h,[40],110 ng/mL
